Experimental data as given in PubChem BioAssay (NCI).
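Briefly, cells in 96-well plates were exposed to five compound concentrations for 48 h, and endpoints were estimated by linear interpolation. GI50 = concentration required for 50% inhibition of growth. TGI marks complete inhibition of growth.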

Tests used:
Assay in all cases: NCI tumour cell line growth inhibition, 48 h
[1] = system: KM20L2 colon
[2] = system: SNB-78 CNS
[3] = system: DMS 273 small cell lung
[4] = system: LXFL 529 NSCLC
[5] = system: RXF-631 renal
[6] = system: M19-MEL melanoma
[7] = system: HOP-18 NSCLC
[8] = system: XF 498 CNS
[9] = system: DMS 114 small cell lung
[10] = system: P388 leukemia
[11] = system: P388/ADR leukemia
[12] = system: SN12K1 renal

N.N.N.O=[N+]([O-])[O-].O=[N+]([O-])[O-].O=[N+]([O-])[O-].O=[N+]([O-])[O-].[Co+3]
GI50 [1]: > 100 µM
TGI [1]: > 100 µM
GI50 [2]: > 100 µM
TGI [2]: > 100 µM
GI50 [3]: > 100 µM
TGI [3]: > 100 µM
GI50 [4]: > 100 µM
TGI [4]: > 100 µM

C=C(C(=O)C(=O)Oc1ccc(Cl)cc1)C(=O)c1ccc(C)cc1
TGI [5]: > 100 µM
TGI [1]: > 100 µM
TGI [6]: 35.4 µM
TGI [7]: > 100 µM
TGI [2]: > 100 µM
TGI [3]: > 100 µM
TGI [8]: > 100 µM
TGI [4]: 80 µM
TGI [9]: > 100 µM

CC1=C(O)C(=O)[C@@H]2O[C@@H]2C1=O
TGI [10]: 4.99 µM
TGI [1]: 49.4 µM
TGI [6]: 28.9 µM
TGI [7]: 30.6 µM
TGI [2]: 40.9 µM
TGI [11]: 32.9 µM
TGI [3]: 62.3 µM
TGI [8]: 23.3 µM
TGI [12]: 32.3 µM
TGI [9]: 28.4 µM

COc1cc(/C=C2/C(=O)N(C(=O)c3ccccc3O)N=C2C)cc(OC)c1OC
TGI [1]: > 100 µM
TGI [6]: > 100 µM
TGI [2]: > 100 µM
TGI [8]: > 100 µM
TGI [4]: > 100 µM
TGI [9]: 21.7 µM

C#CCCCCC#Cc1ccccc1C(=O)OC
TGI [1]: > 100 µM
TGI [7]: > 100 µM
TGI [3]: > 100 µM
TGI [8]: > 100 µM
TGI [9]: 60 µM

COc1ccc(C(C#N)NNC(=O)c2ccccc2O)cc1OC (centres undefined)
TGI [1]: 62.5 µM
TGI [6]: > 100 µM
TGI [7]: > 100 µM
TGI [2]: > 100 µM
TGI [3]: 47.2 µM
TGI [4]: > 100 µM
TGI [9]: 12.7 µM

O=c1[nH]n2c(=O)cc[nH]c2c1-c1nnns1
TGI [1]: > 100 µM
TGI [6]: > 100 µM
TGI [2]: > 100 µM
TGI [3]: > 100 µM
TGI [8]: > 100 µM
TGI [4]: > 100 µM
TGI [9]: > 100 µM

C/C(CCOC1CCCCO1)=C(\C)[Si](C)(C)C (centres undefined)
TGI [1]: > 100 µM
TGI [6]: > 100 µM
TGI [2]: > 100 µM
TGI [8]: > 100 µM
TGI [4]: > 100 µM
TGI [9]: > 100 µM

CC1(C)CC(/C=C2/OC(=O)c3ccccc32)=C(C#N)C(=O)O1
TGI [5]: > 100 µM
TGI [1]: > 100 µM
TGI [6]: > 100 µM
TGI [2]: > 100 µM
TGI [3]: > 100 µM
TGI [8]: > 100 µM
TGI [4]: > 100 µM

COCCOCOc1ccc(OCc2ccccc2)cc1
TGI [10]: 60.7 µM
TGI [1]: > 100 µM
TGI [6]: > 100 µM
TGI [7]: > 100 µM
TGI [2]: > 100 µM
TGI [11]: 89.1 µM
TGI [3]: > 100 µM
TGI [8]: > 100 µM
TGI [12]: > 100 µM
TGI [9]: > 100 µM

OCc1ccc2[n+](c1)CCC1c3ccccc3NC21 (centres undefined)
TGI [1]: > 300 µM
TGI [6]: > 300 µM
TGI [3]: > 300 µM
TGI [8]: > 300 µM
TGI [4]: > 300 µM
TGI [9]: > 300 µM

COC(=O)C(CCC#N)(CCC#N)C(=O)OC
TGI [1]: > 100 µM
TGI [6]: > 100 µM
TGI [3]: > 100 µM
TGI [8]: > 100 µM
TGI [4]: > 100 µM
TGI [9]: > 100 µM

CCOC(=O)C1Cc2[nH]c3ccccc3c2C(C)C1C (centres undefined)
TGI [1]: 31.8 µM
TGI [2]: 62.4 µM
TGI [3]: 30.4 µM
TGI [8]: 37.9 µM
TGI [4]: 57.1 µM
TGI [9]: 58.5 µM
